Test results as given in patent US9272034B2, “Treatment of conditions related to shock” (The Regents of the University of California, priority 2007, dated 2016).

Legend:
[1] = tested on: intestinal ischemia-induced shock; assay: Intra-intestinal pancreatic protease inhibition in intestinal ischemia and reperfusion (SMAO); format: in vivo
Description: These experiments were designed to examine whether inflammatory mediators generated in the intestine by digestive enzymes are released early into the circulation and may contribute to the severe systemic inflammatory response syndrome during shock, a condition that involves the microcirculation in peripheral organs. Intestinal ischemia and reperfusion-induced hypotension upon reperfusion was accompanied by a significant increase in the level of neutrophil activating factors in the intestine and plasma. During reperfusion a significant increase in leukocyte-endothelium interactions in post-capillary venules and parenchymal cell death are observed in the cremaster muscle in controls after SMAO. […] In addition, ischemia-induced intestinal mucosal injury is attenuated with intestinal pancreatic protease inhibition.

[2] = tested on: septic shock with a lethal dose of endotoxin; assay: Intra-luminal lavage after lethal dose of endotoxin (septic shock); format: in vivo, rat; details: endotoxin 4 mg/kg i.v.
Description: Sepsis is accompanied by severe inflammation whose mechanism remains uncertain. The inventors examined the possibility that pancreatic digestive enzymes may also be involved in inflammation in an experimental form of septic shock with a lethal dose of endotoxin in the rat. Immediately after intravenous endotoxin administration, the small intestine was subjected to intra-luminal lavage with and without an inhibitor of pancreatic digestive proteases (FOY, gabexate mesilate). After endotoxin administration (4 mg/kg, gram-negative), control rats developed hypotension, tachycardia, hyperventilation and leukopenia. The intestine and plasma contained mediators that activated leukocytes. The leukocyte-endothelial interaction within the cremaster muscle microcirculation was enhanced. […] These experiments indicate that inflammatory mediators derived from the intestine by digestive proteases may be involved in the prolonged inflammatory response and may sustain symptoms of sepsis after an endotoxin challenge. A bolus administration of endotoxin causes a transient inflammation response and elevated intestinal permeability. But the sustained inflammation that leads to multi-organ failure in this situation is caused by auto-digestion due to escape of pancreatic digestive enzymes from the lumen of the intestine due to the elevated mucosal permeability.

[3] = tested on: superior mesenteric artery occlusion (SMAO)-induced shock; assay: Delayed intestinal lavage with protease inhibitor during reperfusion after SMAO; format: in vivo, Male Wistar rats
Description: In one series of experiments, the inventors discovered that delayed inhibition of digestive enzymes in the lumen of the intestine reduces inflammatory markers after shock. As a clinically relevant situation, the inventors examined the effectiveness of a delayed intestinal protease inhibition during reperfusion after SMAO. […] Intestinal ischemia-induced endotoxemia was prevented by digestive enzyme inhibition.
In summary, delayed intestinal protease inhibition serves to improve experimental SMAO-induced shock by reducing intestinal injury, the level of cell activation in plasma and in the microcirculation, and by restoring the blood pressure.

[4] = tested on: Cecal Lig. Shock; assay: Long-term survival, cecal ligation shock with blockade in intestinal lumen and peritoneum; format: in vivo, rat; details: for survival rate (survivors/treated): alternative serine protease inhibitors
Description: (§1) A study of the long term survival after blockade of digestive enzymes provided further support to the findings. In preparation for this application the inventors carried out pilot studies in the rat with (a) hemorrhagic, (b) endotoxic and (c) cecal ligation shock, followed by an observation period for two weeks until normal cage activities were recorded in survivors. Without food restriction, in hemorrhagic shock the mean blood pressure was reduced for two hours to 35 mmHg followed by return of all blood volume but no further resuscitation. The digestive enzymes were blocked at 1 hour after hypotension by direct infusion of ANGD (0.37 mM, 15 ml) into the intestinal lumen after a temporary exposure via a midline incision. In endotoxic shock, the rats received gram-negative endotoxin (5 mg/kg, i.v.); the digestive enzymes were blocked in the same way at 1 hour after endotoxin administration. No other agent was administered. In cecal ligation shock both the digestive enzymes in the lumen of the intestine as well as inside the peritoneum were blocked with ANGD. […] In contrast to untreated controls, all treated survivors returned after anesthesia within hours to normal activity (walking, climbing, grooming, drinking, eating, bowel movements) and within 3 days to normal weight gain. Furthermore, treatment with alternative serine protease inhibitors (CYCLOKAPRON, tranexamic acid; TRASYLOL, aprotinin) in cecal ligation shock gave significant survival rates (5/5 rats, P<0.0079; 4/5 rats, P<0.02, respectively).

[5] = tested on: septic shock; details: FDA approved treatment; more recent trials could not confirm the effectiveness; cited from earlier work
[6] = tested on: cytotoxic factors (free fatty acids) of intestinal homogenates; assay: Cell death caused by rat small intestine homogenates; format: cell-based; details: homogenization of intestinal wall in the presence of the inhibitor
Description: Breakdown of free fatty acid binding proteins by proteases causes release of free fatty acids to act as powerful cytotoxic mediators.

[7] = tested on: pancreatic digestive enzymes; assay: Enzyme inhibitors administered directly into the circulation (i.v., i.a., i.m.) in shock; format: in vivo; details: administered directly into the circulation (i.v., i.a., i.m.) instead of the lumen of the intestine
Description: From a mechanistic point of view, an important feature is the fact that the significant protection rendered by the inhibition of pancreatic digestive enzymes is only provided if the enzymes are blocked inside the lumen of the intestine. […] This observation supports the hypothesis that digestive enzymes in the lumen of the intestine—where they are fully activated and in high concentrations—are the major enzymes in acute intestinal ischemia. They produce inflammatory mediators that are carried towards the central circulation via the portal venous system, but also via the intestinal lymphatics.

[8] = tested on: hemorrhagic, endotoxic and cecal ligation shock; assay: Long-term survival pilot studies, observations stated for all three shock models together; format: in vivo, rat
Description: as §1

[9] = tested on: plasma enzymatic activity (cleavage of the extracellular domain of the insulin receptor); assay: Shock plasma protease activity cleaving the insulin receptor extracellular domain on donor cells; format: cell-based; details: plasma of rats in hemorrhagic shock collected at 4 hours; results not shown
Description: It was further shown that plasma of shock rats has protease activity and causes cleavage of the extracellular domain of the insulin receptor, E-cadherin, and CAT-1. In all forms of shock there is consistently proteolytic activity in plasma. Therefore the inventors investigated the ability of central venous plasma of rats in hemorrhagic shock (collected at 4 hours) to cleave the extracellular domain of the insulin receptor a by using an antibody against the extracellular binding domain of insulin combined with membrane receptor density measurements. Exposure of normal donor cells to plasma from shock rats, but not to plasma of control rats, causes extensive cleavage of the insulin binding domain. Furthermore, this cleavage causes also a reduction of the glucose transport into the cell cytoplasm. […] There is also a significant cleavage of the extracellular domain of the tight junction protein E-cadherin in intestinal epithelium and CAT-1 in leukocytes.

[10] = tested on: hemorrhagic shock; assay: Enteroclysis with digestive protease blockade in porcine hemorrhagic shock; format: in vivo, pigs
Description: The inventors examined the utility of intestinal lavage in a porcine model of hemorrhagic shock. An objective of this study was to determine the effect of digestive protease blockade in the lumen of the intestine during hemorrhagic shock. The animals (16 pigs) were subjected to a shock that mimics clinical events. Pigs were bled 30 ml/kg over 30 minutes and maintained at a mean arterial pressure of 30 mmHg for 60 minutes and shed blood was then used to maintain a pressure of 45 mmHg for three hours.

[11] = tested on: Endotoxic Shock; assay: Long-term survival, endotoxic shock with intra-intestinal enzyme blockade; format: in vivo, rat; details: endotoxin 5 mg/kg i.v.; blockade at 1 hour; two weeks observation; P < 0.004
Description: as §1, with “Furthermore, treatment with alternative serine protease inhibitors (CYCLOKAPRON, tranexamic acid; TRASYLOL, aprotinin) in cecal ligation shock gave significant survival rates (5/5 rats, P<0.0079; 4/5 rats, P<0.02, respectively).” left out

[12] = tested on: Hemorrhagic Shock; assay: Long-term survival, hemorrhagic shock with intra-intestinal enzyme blockade; format: in vivo, rat; details: ANGD 0.37 mM, 15 ml into intestinal lumen at 1 hour after hypotension; two weeks observation; P < 0.01
Description: as §1, with “Furthermore, treatment with alternative serine protease inhibitors (CYCLOKAPRON, tranexamic acid; TRASYLOL, aprotinin) in cecal ligation shock gave significant survival rates (5/5 rats, P<0.0079; 4/5 rats, P<0.02, respectively).” left out

[13] = tested on: hemorrhagic shock; assay: Survival of lab rodents in hemorrhagic shock given basic shock care with or without inhibitor; format: in vivo; details: 10 of 19 rodents treated; one of nine untreated survived
Description: The researchers then began animal studies. The present invention is based on the latest research using rodent models of human hemorrhagic shock. Here it has been discovered that the sudden lowering of blood pressure that occurs in people suffering from […] can provoke the body's digestive enzymes to break down the body's own intestinal tissue as if it were food. Such enzymes' abnormal actions may be defined as “auto-digestion.” Auto-digestion is dangerous because not only does it injure healthy tissue but also contributes to multi-organ failure, which can be fatal.
The healthy cells of the animals' intestinal tissue react to auto-digestion by releasing a slew of substances that can be toxic to the heart and other body organs. These substances, termed cytotoxic mediators, can reach these body organs via the blood stream. In their latest studies, shock was induced in 19 lab rodents, all of which were then treated with therapies that mirror the emergency room care given to many human patients who suffer shock, which typically occurs when blood flow to the heart, lungs and other body organs is slowed as a result of trauma, dehydration, heart attack or stroke.
A total of 10 of the 19 lab rodents in shock were also treated with the experimental digestive enzyme inhibitor called ANGD. […] However, only one of the nine “untreated” animals in shock survived. […]

[14] = FOY 0.37 mM, delayed lavage at 40 min after reperfusion
[15] = blockade in lumen of intestine and peritoneum, two weeks observation, P < 0.001
[16] = 100 ml/kg of 0.37 mM in GOLYTELY via duodenal catheter

CCOC(=O)c1ccc(OC(=O)CCCCCN=C(N)N)cc1.CS(=O)(=O)O [FOY, gabexate mesilate]
leukocyte-endothelial interactions (rolling and firm adhesion to the endothelium) ([1]; cremaster muscle): almost completely abolished | cell death (propidium iodine labeling) in the cremaster muscle ([1]; in vivo): almost completely abolished | ischemia-induced intestinal mucosal injury ([1]; in vivo): attenuated | blood pressure ([1]; intra-intestinal, 0.37 mM): stable blood pressure throughout the experiment | cell activation ([1]; intra-intestinal, 0.37 mM): almost completely abolished | cell injury in peripheral skeletal muscle microcirculation [2]: reduces | indices of inflammation in plasma [2]: reduces all indices | hemodynamic parameters ([2]; intra-luminal lavage immediately after): significantly improved | formation of intestine-derived leukocyte activation factors [3, 14]: decreased formation | intestinal injury [3, 14]: decreased | blood pressure ([3]; FOY 0.37 mM, delayed lavage at 40 min after reperfusion, SMAO 100 min): highly significant restoration of the initial blood pressure before shock | leukocytes adhesion in post-capillary venules ([3]; cremaster muscle microcirculation): lower leukocytes adhesion | cell death in the cremaster muscle microcirculation ([3]; rat, in vivo): reduced cell death | intestinal ischemia-induced endotoxemia ([3]; rat, in vivo): prevented

NC[C@H]1CC[C@H](C(=O)O)CC1 [CYCLOKAPRON, tranexamic acid]
survival rate (survivors/treated) [4]: 5/5

drotrecogin alfa (activated) [XIGRIS]
survival benefit [5]: minor but confirmed survival benefit

CCCCCCCCCCC[C@@H](C[C@@H]1OC(=O)[C@H]1CCCCCC)OC(=O)[C@H](CC(C)C)NC=O [orlistat]
cell death after protease digestion [6]: prevented cell death

aprotinin [TRASYLOL]
protection against inflammation in shock [7]: less, and in some cases no protection | survival rate (survivors/treated) [4]: 4/5

N=C(N)c1ccc2cc(OC(=O)c3ccc(N=C(N)N)cc3)ccc2c1 [ANGD, 6-amidino-2-naphthyl p-guanidobenzoate dimethane-sulfate]
protection against inflammation in shock [7]: less, and in some cases no protection | Non-Survivor [4, 15]: 1 number of rats | Survivor [4, 15]: 9 number of rats | survival rate versus untreated controls ([8]; in each shock model): significantly enhanced survival rate | return of treated survivors to normal weight gain ([8]; rat, in vivo): ≤ 3 days | return of treated survivors to normal activity after anesthesia ([8]; walking, climbing, grooming, drinking, eating, bowel movements): within hours | block of plasma enzymatic activity [9]: more than 50% | protease activity in the intestinal lumen and in plasma throughout the experiment [10, 16]: persistent suppression | protein and protease levels in the duodenum during enteroclysis [10, 16]: significant reductions | leukocyte infiltration into the lung ([10]; p=0.04): lower in treated than control animals | liver and small intestine injury ([10]; pig, in vivo): less injury | transfusion requirement of shed blood ([10]; versus 30±0.43 ml/kg in controls, p=0.002): 18.1 ± 4.5 mL/kg | level of neutrophil activation after resuscitation ([10]; versus 46.9±4.5% in controls, p=0.0002): 31.1±3.3% | Non-Survivor [11]: 1 number of rats | Survivor [11]: 10 number of rats | Non-Survivor [12]: 2 number of rats | Survivor [12]: 10 number of rats | survival (survivors of treated animals) [13]: Eight of the ten
